What was measured:
human H3 receptor = biological target: T1, human H3 receptor (Homo sapiens, UniProt Q9Y5N1); assay: Human H3 radioligand binding ([3H]-N-alpha-methylhistamine, SPA); settings: human H3 binding, Table D; read-out: Human H3 Ki
T1 construct: expressed in transfected cells
Outline: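 Compounds (0.01 nM-30 μM) competed with approximately 1 nM [3H]-N-alpha-methylhistamine for human H3 receptor in membranes of stably transfected CHO cells, 10 μg protein per well, in Tris-HCl pH 7.4/MgCl2/BSA buffer for 4 h at room temperature. Bound radioligand measured by scintillation proximity; 10 μM clobenpropit gave non-specific binding.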

[1] = biological target: T2, rat histamine H3 receptor (Rattus norvegicus, UniProt Q9QYN8); assay: Rat H3 radioligand binding ([3H]-N-alpha-methylhistamine, SPA); settings: rat H3 binding, Table D; read-out: Rat H3 Ki
T2 construct: encoding the entire 445-amino-acid rat histamine H3 receptor; expressed in transfected cells; membrane preparation
T2 sequence (Q9QYN8 whole entry): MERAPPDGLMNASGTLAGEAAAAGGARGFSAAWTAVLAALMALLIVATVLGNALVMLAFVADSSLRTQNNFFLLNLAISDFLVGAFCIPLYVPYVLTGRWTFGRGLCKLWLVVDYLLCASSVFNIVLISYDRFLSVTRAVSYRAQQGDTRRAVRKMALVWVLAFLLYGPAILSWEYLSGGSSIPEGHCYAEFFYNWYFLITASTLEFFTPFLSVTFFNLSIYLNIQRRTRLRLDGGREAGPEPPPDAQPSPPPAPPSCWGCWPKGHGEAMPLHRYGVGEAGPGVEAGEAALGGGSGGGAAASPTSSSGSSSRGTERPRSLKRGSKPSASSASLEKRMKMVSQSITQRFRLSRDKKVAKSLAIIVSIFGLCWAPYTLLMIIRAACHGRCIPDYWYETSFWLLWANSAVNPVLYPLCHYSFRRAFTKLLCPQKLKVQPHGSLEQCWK
Outline: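 SPA-bead binding assay using [3H]-N-alpha-methylhistamine (approximately 1 nM final) with test compounds from 0.01 nM to 30 μM. Rat H3 receptor membranes came from stably transfected CHO-A3 cells; incubation ran 4 h at room temperature, in the dark, in Tris pH 7.4 buffer with MgCl2 and BSA. Clobenpropit (10 μM) gave non-specific binding.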

T1 sequence (Q9Y5N1 whole entry): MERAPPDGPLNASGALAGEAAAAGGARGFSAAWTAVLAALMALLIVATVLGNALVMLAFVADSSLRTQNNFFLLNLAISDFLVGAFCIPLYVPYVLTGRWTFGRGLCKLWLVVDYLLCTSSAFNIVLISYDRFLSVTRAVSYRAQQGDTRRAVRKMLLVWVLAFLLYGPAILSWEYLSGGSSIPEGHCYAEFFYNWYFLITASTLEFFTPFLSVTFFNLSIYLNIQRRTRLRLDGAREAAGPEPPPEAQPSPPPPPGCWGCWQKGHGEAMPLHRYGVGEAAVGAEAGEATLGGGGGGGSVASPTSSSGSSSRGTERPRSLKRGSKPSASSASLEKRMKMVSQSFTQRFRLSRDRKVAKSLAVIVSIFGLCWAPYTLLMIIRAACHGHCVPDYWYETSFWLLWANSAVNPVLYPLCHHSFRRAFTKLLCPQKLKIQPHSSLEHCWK

SMILES	Ki (human H3 receptor) [nM]	melting point [°C]	Ki [1] [nM]
CN(C)C(=O)CCc1ccc2c(c1)CCC1(CCN(C3CCC3)CC1)O2 [Example 603]	< 200	180 to 182	< 200
NC(=O)c1ccc(-c2ccc3c(c2)COC2(CCN(C4CCC4)CC2)O3)cc1Cl [Example 604]	< 200	164 to 166	< 200
O=C(N[C@@H]1CCOC1)c1ccc(-c2ccc3c(c2)COC2(CCN(C4CCC4)CC2)O3)cc1Cl [Example 605]	< 200	189 to 191	< 200
O=C(NC1CCOCC1)c1ccc(-c2ccc3c(c2)COC2(CCN(C4CCC4)CC2)O3)cc1Cl [Example 606]	< 200	209 to 211	< 200
CNC(=O)c1cc(-c2ccc3c(c2)COC2(CCN(C4CCC4)CC2)O3)cs1 [Example 607]	< 200	186 to 188	< 200
CN(C)C(=O)c1ccc(-c2ccc3c(c2)COC2(CCN(C4CCC4)CC2)O3)cc1Cl [Example 608]	< 200	80 to 82	< 200
Cc1cc(-c2ccc3c(c2)COC2(CCN(C4CCC4)CC2)O3)cnc1O [Example 609]	< 200	95.2 to 97	< 200
COc1ncc(-c2ccc3c(c2)COC2(CCN(C4CCC4)CC2)O3)cc1C [Example 610]	< 200	142 to 145	< 200
O=C(N[C@H]1CCOC1)c1ccc(-c2ccc3c(c2)COC2(CCN(C4CCC4)CC2)O3)cc1Cl [Example 611]	< 200	185 to 187	< 200
CN(C)C(=O)C1CCCN(c2ccc3c(c2)COC2(CCN(C4CCC4)CC2)O3)C1 (stereo not drawn) [Example 612]	< 200	51.2 to 54.2	< 200
COCCNC(=O)C1CCCN(c2ccc3c(c2)COC2(CCN(C4CCC4)CC2)O3)C1 (stereo not drawn) [Example 613]	< 200	55.4 to 57.3	< 200
O=C(O)C1CCCN(c2ccc3c(c2)COC2(CCN(C4CCC4)CC2)O3)C1 (stereo not drawn) [Example 614]	200 to 1000	84 to 86.4	200 to 1000
Cc1nnc(COc2ccc3c(c2)CCC2(CCN(C4CCC4)CC2)O3)o1 [Example 615]	< 200	97 to 98	< 200
Cc1noc(COc2ccc3c(c2)CCC2(CCN(C4CCC4)CC2)O3)n1 [Example 616]	< 200	95 to 96	< 200
CS(=O)(=O)c1ccc(COc2ccc3c(c2)CCC2(CCN(C4CCC4)CC2)O3)cc1 [Example 617]	< 200	142 to 146	< 200
COC(=O)/C=C/c1ccc2c(c1)COC1(CCN(C3CCC3)CC1)O2 [Example 618]	< 200	131 to 133	< 200
CN(C)C(=O)c1cnc(COc2ccc3c(c2)CCC2(CCN(C4CCC4)CC2)O3)cn1 [Example 619]	< 200	120 to 123	< 200
CNS(=O)(=O)c1ccc(-c2ccc3c(c2)COC2(CCN(C4CCC4)CC2)O3)cc1Cl [Example 620]	< 200	127 to 129	< 200
CN(C)S(=O)(=O)c1ccc(-c2ccc3c(c2)COC2(CCN(C4CCC4)CC2)O3)cc1Cl [Example 621]	< 200	97 to 99	< 200
CS(=O)(=O)c1ccc(-c2ccc3c(c2)COC2(CCN(C4CCC4)CC2)O3)cc1Cl [Example 622]	< 200	198 to 201	< 200
CN(C)C(=O)c1cc(COc2ccc3c(c2)CCC2(CCN(C4CCC4)CC2)O3)ccn1 [Example 623]	< 200	165 to 167	< 200
COc1cc(-c2ccc3c(c2)COC2(CCN(C4CCC4)CC2)O3)ccc1C(=O)O [Example 624]	< 200	173 to 175	200 to 1000
CCS(=O)(=O)c1ccc(-c2ccc3c(c2)COC2(CCN(C4CCC4)CC2)O3)cc1Cl [Example 625]	< 200	157 to 159	< 200
CCOCC1CCN(c2ccc3c(c2)CCC2(CCN(C4CCC4)CC2)O3)CC1 [Example 626]	< 200	101.6 to 103.2	< 200
CCOCC1CCN(c2ccc3c(c2)COC2(CCN(C4CCC4)CC2)O3)CC1 [Example 627]	< 200	85.2 to 86.5	< 200

SMILES	Ki (human H3 receptor) [nM]	melting point [°C]	Ki [1] [nM]
Cc1noc(C2CCN(c3ccc4c(c3)COC3(CCN(C5CCC5)CC3)O4)CC2)n1 [Example 628]	< 200	125 to 126.2	< 200
COc1ncc(-c2ccc3c(c2)COC2(CCN(C4CCC4)CC2)O3)cc1Cl [Example 629]	< 200	174 to 175	< 200
COC(=O)CCc1ccc2c(c1)COC1(CCN(C3CCC3)CC1)O2 [Example 630]	< 200	66 to 68	< 200
O=C(NC1CCOCC1)c1ccc(-c2ccc3c(c2)COC2(CCN(C4CCC4)CC2)O3)s1 [Example 631]	< 200	209 to 211	< 200
COCC1CCN(c2ccc3c(c2)COC2(CCN(C4CCC4)CC2)O3)CC1 [Example 632]	< 200	92.3 to 94.2	< 200
CNC(=O)c1ccc(-c2ccc3c(c2)COC2(CCN(C4CCC4)CC2)O3)cc1OC [Example 633]	< 200	175 to 177	< 200
COCCNC(=O)c1ccc(-c2ccc3c(c2)COC2(CCN(C4CCC4)CC2)O3)cc1OC [Example 634]	< 200	50 to 52	< 200
COc1cc(-c2ccc3c(c2)COC2(CCN(C4CCC4)CC2)O3)ccc1C(=O)NC1CCOCC1 [Example 635]	< 200	86 to 88	< 200
COc1cc(-c2ccc3c(c2)COC2(CCN(C4CCC4)CC2)O3)ccc1C(=O)N1CCOCC1 [Example 636]	< 200	94 to 96	< 200
CN(C)C(=O)c1ccc(-c2ccc3c(c2)COC2(CCN(C4CCC4)CC2)O3)nc1 [Example 638]	< 200	190 to 193	< 200
O=C(NC1CCOCC1)c1ccc(-c2ccc3c(c2)COC2(CCN(C4CCC4)CC2)O3)cn1 [Example 639]	< 200	108 to 110	< 200
O=C(NC1CCOCC1)c1ccc(-c2ccc3c(c2)COC2(CCN(C4CCC4)CC2)O3)cc1F [Example 640]	< 200	165 to 167	< 200
OCc1ccc(-c2ccc3c(c2)COC2(CCN(C4CCC4)CC2)O3)s1 [Example 641]	< 200	168 to 169	< 200
O=C(c1ccc(-c2ccc3c(c2)COC2(CCN(C4CCC4)CC2)O3)cc1F)N1CCOCC1 [Example 642]	< 200	161 to 162	< 200
O=C(c1ccc(-c2ccc3c(c2)COC2(CCN(C4CCC4)CC2)O3)s1)N1CCOCC1 [Example 643]	< 200	166 to 167	< 200
COCCNC(=O)CCc1ccc2c(c1)COC1(CCN(C3CCC3)CC1)O2 [Example 644]	< 200	68 to 70	200 to 1000
O=C(CCc1ccc2c(c1)COC1(CCN(C3CCC3)CC1)O2)NC1CCOCC1 [Example 645]	< 200	167 to 169	200 to 1000
O=C(NC1CCOCC1)c1cccc(COc2ccc3c(c2)CCC2(CCN(C4CCC4)CC2)O3)c1 [Example 646]	< 200	158 to 160	< 200
O=C(NC1CCOCC1)c1ccc(COc2ccc3c(c2)CCC2(CCN(C4CCC4)CC2)O3)cc1 [Example 647]	< 200	174 to 176	< 200
CCS(=O)(=O)C1CCN(c2ccc3c(c2)COC2(CCN(C4CCC4)CC2)O3)CC1 [Example 648]	< 200	147.7 to 149.8	< 200
COc1ccc(-c2ccc3c(c2)COC2(CCN(C4CCC4)CC2)O3)nc1 [Example 650]	< 200	123 to 126	< 200
Cc1cc(=O)[nH]cc1-c1ccc2c(c1)COC1(CCN(C3CCC3)CC1)O2 [Example 651]	< 200	217 to 220	< 200
CS(=O)(=O)c1ccc(-c2ccc3c(c2)COC2(CCN(C4CCC4)CC2)O3)s1 [Example 652]	< 200	159 to 161	< 200
CNC(=O)CCc1ccc2c(c1)COC1(CCN(C3CCC3)CC1)O2 [Example 653]	< 200	86 to 88	< 200
CN(C)S(=O)(=O)c1ccc(-c2ccc3c(c2)COC2(CCN(C4CCC4)CC2)O3)s1 [Example 654]	< 200	189 to 192	< 200

— patent US8513232B2, “Substituted spirocyclic piperidine derivatives as histamine-3 (H3) receptor ligands” (Cephalon, Inc., priority 2008, dated 2013)
